The target of one data set is T1, human EGF-R (Homo sapiens, UniProt P00533).
T1 construct: expressed in transfected cells; host or cells: F/L-HERc cells (murine IL-3-dependent FDC-P1 line transduced with an LXSN retroviral vector carrying human EGF-R cDNA; packaging line GP+E86)
Kind of data set: Inhibition of EGF-dependent proliferation of F/L-HERc cells (Cell Titer 96 assay). The data set is classed as cell-based. The conditions noted are these: F/L-HERc cells (murine IL-3-dependent line expressing human EGF-R), stimulated with EGF 20 ng/ml, 48 hours at 37° C. An excerpt: A cell line of murine origin dependent on interleukin-3-(IL-3) which was genetically modified to express functional human EGF-R was used here. The proliferation of these cells known as F/L-HERc can therefore be stimulated either by murine IL-3 or by EGF (cf T. von Ruiden et al., EMBO J. 7, 2749-2756 (1988) and J. H. Pierce et al., Science 239, 628-631 (1988)).
The starting material used for the F/L-HERc cells was the cell line FDC-P1, the production of which has been described by T. M. Dexter et al., J. Exp. Med. 152. 1036-1047 (1980). Alternatively, however, other growth-factor-dependent cells may also be used (cf., e.g., J.H. Pierce et al., Science 239, 628-631 (1988); H. Shibuya et al., Cell 70, 57-67 (1992); and W. S. Alexander et al., EMBO J. 10, 3683-3691 (1991)). For expressing the human EGF-R cDNA (cf A. Ullrich et al., Nature 309, 418-425 (1984)) recombinant retroviruses were used as described by T. von Ruiden et al., EMBO J. 7, 2749-2756 (1988), except that the retroviral vector LXSN (cf A. D. Miller et al., BioTechniques 7, 980-990 (1989)) was used for the expression of the EGF-R cDNA and the line GP+E86 (cf D. Markowitz et al., J. Virol. 62, 1120-1124 (1988)) was used as the packaging cell.
The test was performed as follows:
F/L-HERc cells were cultivated in RPMI/1640 medium (BioWhittaker), supplemented with 10% fetal calf serum (FCS, Boehringer Mannheim), 2 mM glutamine (BioWhittaker), standard antibiotics and 20 ng/ml of human EGF (Promega), at 37° C. and 5% CO2. In order to investigate the inhibitory activity of the compounds according to the invention, 1.5×10^4 cells per well were cultivated in triplicate in 96-well plates in the above medium (200 μl), the cell proliferation being stimulated with either EGF (20 ng/ml) or murine IL-3. The IL-3 used was obtained from culture supernatants of the cell line X63/0 mIL-3 (cf H. Karasuyama et al., Eur. J. Immunol. 18, 97-104 (1988)). The compounds according to the invention were dissolved in 100% dimethylsulfoxide (DMSO) and added to the cultures in various dilutions, the maximum DMSO concentration being 1%. The cultures were incubated for 48 hours at 37° C.
In order to determine the inhibitory activity of the compounds according to the invention the relative cell number was measured in O.D. units using the Cell Titer 96™ Aqueous Non-Radioactive Cell Proliferation Assay (Promega). The relative cell number was calculated as a percentage of the control (F/LHERc cells without inhibitor) and the concentration of active substance which inhibits the proliferation of the cells by 50% (IC50) was derived therefrom.

What is called IC50 is the concentration needed to halve the response being measured. Low readings indicate inhibition by little substance, high ones a need for much substance. Broadly, the melting point is the temperature of the solid-liquid transition.

SMILES strings stand for the structures.

T1 sequence (P00533 25-1210): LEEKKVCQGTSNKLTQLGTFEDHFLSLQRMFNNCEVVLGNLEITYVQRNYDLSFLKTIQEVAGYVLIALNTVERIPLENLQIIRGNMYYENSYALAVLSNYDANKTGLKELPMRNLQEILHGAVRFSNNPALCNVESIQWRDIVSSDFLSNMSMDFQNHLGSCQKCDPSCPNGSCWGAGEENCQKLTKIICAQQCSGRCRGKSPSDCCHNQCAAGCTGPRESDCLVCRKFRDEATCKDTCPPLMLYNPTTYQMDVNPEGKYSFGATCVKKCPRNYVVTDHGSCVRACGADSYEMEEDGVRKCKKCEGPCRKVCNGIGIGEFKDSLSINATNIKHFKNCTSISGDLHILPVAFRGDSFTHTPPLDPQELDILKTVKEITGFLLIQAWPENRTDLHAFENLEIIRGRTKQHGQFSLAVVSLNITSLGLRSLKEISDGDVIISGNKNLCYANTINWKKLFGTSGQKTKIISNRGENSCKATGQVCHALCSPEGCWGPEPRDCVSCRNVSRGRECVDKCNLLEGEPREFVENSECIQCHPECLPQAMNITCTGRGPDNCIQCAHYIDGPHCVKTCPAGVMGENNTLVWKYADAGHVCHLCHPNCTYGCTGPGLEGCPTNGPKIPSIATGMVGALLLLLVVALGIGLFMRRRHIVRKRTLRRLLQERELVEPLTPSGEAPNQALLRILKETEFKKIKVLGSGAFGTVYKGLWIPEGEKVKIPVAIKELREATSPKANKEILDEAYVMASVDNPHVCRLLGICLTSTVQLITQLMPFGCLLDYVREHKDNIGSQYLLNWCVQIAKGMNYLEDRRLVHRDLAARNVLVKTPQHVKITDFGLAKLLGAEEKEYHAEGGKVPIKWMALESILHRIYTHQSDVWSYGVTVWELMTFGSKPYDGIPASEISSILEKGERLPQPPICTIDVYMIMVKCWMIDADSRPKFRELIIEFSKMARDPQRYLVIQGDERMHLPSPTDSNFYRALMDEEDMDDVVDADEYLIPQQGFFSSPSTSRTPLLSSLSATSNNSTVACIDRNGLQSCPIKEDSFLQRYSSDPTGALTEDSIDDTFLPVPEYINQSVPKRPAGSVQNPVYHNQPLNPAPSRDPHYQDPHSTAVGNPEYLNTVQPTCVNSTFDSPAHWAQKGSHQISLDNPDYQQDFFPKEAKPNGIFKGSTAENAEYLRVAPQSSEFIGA

On to `COC(=O)CN(CC(=O)OC)C1CCC(N(C)c2ncc3ncnc(Nc4ccc(F)c(Cl)c4)c3n2)CC1` (stereo not drawn) [3(12), 4-[(3-chloro-4-fluorophenyl)amino]-6-[N-(trans-4-{N,N′-bis[(methoxycarbonyl)methyl]amino}cyclohex-1-yl)-N-methylamino]pyrimido[5,4-d]pyrimidine], for which the melting point lay in the range of 162 to 164 °C. In addition, the IC50 against human EGF-R is 103 nM.

Consider `O=C(O)CN1CCC(CCNc2ncc3ncnc(Nc4ccc(F)c(Cl)c4)c3n2)CC1` [1(9), 4-[(3-chloro-4-fluorophenyl)amino]-6-{2-[1-(carboxymethyl)piperidin-4-yl]ethylamino}pyrimido[5,4-d]pyrimidine], for which the melting point is 246 to 249 °C (dec.). In addition, the midpoint of inhibition at human EGF-R, the IC50, lay at 820 nM.

Turning to `O=C(O)CCN1CCC(N2CCN(c3ncc4ncnc(Nc5ccc(F)c(Cl)c5)c4n3)CC2)CC1` [1(8), 4-[(3-chloro-4-fluorophenyl)amino]-6-{4-[1-(2-carboxyethyl)piperidin-4-yl]piperazin-1-yl}pyrimido[5,4-d]pyrimidine], the melting point is 213 °C (dec.). The IC50 against human EGF-R is 1450 nM.

In turn, `COC(=O)CN1CCC(Nc2ncc3ncnc(Nc4ccc(F)c(Cl)c4)c3n2)CC1` [2(1), 4-[(3-chloro-4-fluorophenyl)amino]-6-({1-[(methoxycarbonyl)methyl]piperidin-4-yl}amino)pyrimido [5,4-d]pyrimidine] registered a melting point of 162 to 164 °C. At human EGF-R, this molecule showed an IC50 of 15 nM.

The molecule `O=C(O)CN1CCC(Nc2ncc3ncnc(Nc4ccc(F)c(Cl)c4)c3n2)CC1` [Example 1, 4-[(3-chloro-4-fluorophenyl)amino]-6-{ [1-(carboxymethyl)piperidin-4-yl]amino}pyrimido[5.4-d]pyrimidine] registered a melting point of 202 to 205 °C. The 50% inhibitory concentration (IC50) against human EGF-R came out at 840 nM.

The molecule `CCOC(=O)CN1CCN(c2ncc3ncnc(Nc4ccc(F)c(Cl)c4)c3n2)CC1` [2(10), 4-[(3-chloro-4-fluorophenyl)amino]-6-[4-[(ethoxycarbonyl)methyl]piperazin-1-yl]pyrimido[5,4-d]pyrimidine] had a melting point of 179 to 182 °C. Moreover, 2040 nM corresponded to half-maximal inhibition at human EGF-R (IC50).

Consider `O=C(O)C1CCN(CCNc2ncc3ncnc(Nc4ccc(F)c(Cl)c4)c3n2)CC1` [1(10), 4-[(3-chloro-4-fluorophenyl)amino]-6-[2-(4-carboxypiperidin-1-yl)ethylamino]pyrimido [5,4-d]pyrimidine], for which the melting point was 190 °C (dec.). At human EGF-R, this molecule displayed an IC50 of 2510 nM.

`COC(=O)CN1CCC(Nc2ncc3ncnc(Nc4cccc(Cl)c4)c3n2)CC1` [2(23), 4-[(3-chlorophenyl)amino]-6-({1-[(methoxycarbonyl)methyl]piperidin-4-yl}amino)pyrimido[5,4-d]pyrimidine] returned a melting point of 129 °C. Further, the IC50 against human EGF-R worked out at 25 nM.

For the molecule `CCOC(=O)C1CCN(CCNc2ncc3ncnc(Nc4ccc(F)c(Cl)c4)c3n2)CC1` [2(14), 4-[(3-chloro-4-fluorophenyl)amino]-6-{2-[4-(ethoxycarbonyl)piperidin-1-yl]ethylamino}pyrimido[5,4-d]pyrimidine], the melting point was in the range of 137 to 139 °C. In addition, the 50% inhibitory concentration (IC50) against human EGF-R came to 1150 nM.

`COC(=O)CN1CCC(Nc2ncc3ncnc(Nc4cc(Br)c(N)c(Br)c4)c3n2)CC1` [2(27), 4-[(4-amino-3,5-dibromophenyl)amino]-6-({1-[(methoxycarbonyl)methyl]piperidin-4-yl}amino)pyrimido[5,4-d]pyrimidine] gave a melting point of 167 °C. The molecule also showed an IC50 against human EGF-R of 77 nM.

Turning to `O=C(O)CN1CCN(c2ncc3ncnc(Nc4ccc(F)c(Cl)c4)c3n2)CC1` [Example 1(6), 4-[(3-chloro-4-fluorophenyl)amino]-6-[4-(carboxymethyl)piperazin-1-yl]pyrimido[5,4-d]pyrimidine], the melting point was 240 °C (dec.). For the same molecule, the IC50 against human EGF-R is 2300 nM.

The molecule `COC(=O)CN1CCC(Nc2ncc3ncnc(Nc4cc(Cl)c(N)c(Cl)c4)c3n2)CC1` [2(26), 4-[(4-amino-3,5-dichlorophenyl)amino]-6-({1-[(methoxycarbonyl)methyl]piperidin-4-yl}amino)pyrimido[5,4-d]pyrimidine] had a melting point of 218 °C. Moreover, the IC50 against human EGF-R was 21 nM.

In turn, `CCOC(=O)CN1CCC(CCNc2ncc3ncnc(Nc4ccc(F)c(Cl)c4)c3n2)CC1` [2(13), 4-[(3-chloro-4-fluorophenyl)amino]-6-(2-{1-[(ethoxycarbonyl)methyl]piperidin-4-yl}ethylamino)pyrimido[5,4-d]pyrimidine] registered a melting point of 128 to 130 °C. The same molecule gave an IC50 on human EGF-R of 1030 nM.

As to `COC(=O)CN1CCC(Nc2ncc3ncnc(Nc4cccc(Br)c4)c3n2)CC1` [2(17)], the melting point is 144 °C. The molecule further came in with an IC50 against human EGF-R of 30 nM.

As to `COC(=O)CN1CCC(Nc2ncc3ncnc(Nc4cccc(C)c4)c3n2)CC1` [2(24), 4-[(3-methylphenyl)amino]-6-({1-[(methoxycarbonyl)methyl]piperidin-4-yl}amino)pyrimido[5,4-d]pyrimidine], the melting point is 164 °C. The IC50 at human EGF-R turned out to be 73 nM.

On to `CN(CC(=O)O)[C@H]1CC[C@H](Nc2ncc3ncnc(Nc4ccc(F)c(Cl)c4)c3n2)CC1` [1(3), 4-[(3-chloro-4-fluorophenyl)amino]-6-({trans-4-[N-(carboxymethyl)-N-methylamino]cyclohex-1-yl}amino)pyrimido[5,4-d]pyrimidine], for which the melting point is 220 to 228 °C. The same molecule had an IC50 against human EGF-R of 320 nM.

In the case of `COC(=O)CN(C)[C@H]1CC[C@H](Nc2ncc3ncnc(Nc4ccc(F)c(Cl)c4)c3n2)CC1` [2(7), 4-[(3-chloro-4-fluorophenyl)amino]-6-[(trans-4-{N-[(methoxycarbonyl)methyl]-N-methylamino}cyclohex-1-yl)amino]pyrimido[5,4-d]pyrimidine], the melting point lay within 131 to 134 °C. Besides, the IC50 against human EGF-R is 60 nM.

Regarding `O=C1CN(C2CCC(Nc3ncc4ncnc(Nc5ccc(F)c(Cl)c5)c4n3)CC2)CCO1` (stereo not drawn) [Example 7, 4-[(3-chloro-4-fluorophenyl)amino]-6-{[trans-4-(2-oxomorpholin-4-yl)cvclohex-1-yl]amino}pyrimido[5,4-d]pyrimidine], the melting point lay within 202 to 204 °C. For the same molecule, the IC50 against human EGF-R was 122 nM.

The values are drawn from patent publication US20020082420A1, “Bicyclic heterocycles, pharmaceutical compositions containing them, their use, and processes for preparing them” (priority 2000, published 2002).
